Measurements published in patent US20260226035A1, “THIOCHROMAN DERIVATIVE AND PREPARATION METHOD THEREFOR AND USE THEREOF” (SHANGHAI INSTITUTE OF MATERIA MEDICA, CHINESE ACADEMY OF …, priority 2022, published 2026).
Where two headings read alike, the source gives them in different places.

Experiments:
[1] = target: ERα of uterine tissue (Rattus norvegicus, UniProt P06211); settings: in vivo, po
Experimental: HE experiment: 1) Cut the fixed uterine tissue into […] slices and place the slices in an oven for 1 hour; 2) Dewax the dried paraffin slices with conventional xylene, hydrate with gradient ethanol, and wash with distilled water; 3) Add hematoxylin to stain for 10 min to 30 min, then wash away the hematoxylin stain with running water; 4) Decolorize with 1% hydrochloric acid ethanol until the slices turn red and lighter in color, and then put them in running water to restore them to blue.

[2] = test system: MCF-7 Tam1 cells; test: Inhibition of tamoxifen-resistant MCF-7 Tam1 cell proliferation (CTG); format: cell-based; settings: Homo sapiens, MCF7:TAM1, 120 h, read-out: IC50 (nM), inhibitory activity on tamoxifen-resistant cells MCF-7 Tam1
[3] = test system: MCF-7 mouse subcutaneous tumor model; test: Growth inhibition in MCF-7 mouse subcutaneous tumor model; format: in vivo, mice; settings: p.o., QD; for mean tumour volume (mm^3), 21 days / TGI(%): 21 days; for TGI(%): LSZ102 15 mg/kg, Example 4 5 mg/kg
Source text: Experimental reagents: fetal bovine serum (SH30070.03) (FBS, Hyclone, Logan, UT, USA); penicillin ([…]) (Sigma, St. Louis, MO, USA); streptomycin (85886) (Sigma, St. Louis, MO, USA); recombinant human insulin (91077C) (Sigma, St. Louis, MO, USA); EMEM medium (30-2003) (ATCC, Rockville, MD, USA); trypsin (15090046) (Gibco, Grand Island, NY, USA); HBSS ([…]), DMSO (D8418), PEG400 (8074851000), PEG300 (8074841000), PBS (806552), Solutol HS-15 (42966) (Sigma, St. Louis, MO, USA); Matrigel Matrix (BD Bioscience, USA); estrogen pellets (0.36 mg estradiol, 60-day release) (SE-121) (Innovative Research of America, Florida, USA); […] StarSignal Western Protein Marker (10-200 kDa) (M227-01) (GenStar, Beijing, China); Ponceau red, Tween 20, acrylamide, sodium dodecyl sulfate, PMSF (Solon, OH, USA); protein blotting membrane regeneration solution (ZN1923, Biolab, Beijing, China); protein lysis buffer (RIPA), 1.5 mol/L Tris HCl (pH 6.8), 1.5 mol/L Tris HCl (pH 8.8) (Beyotime, Shanghai, China); ECL luminescent solution (Thermo Fisher Scientific, Pittsburgh, PA, USA); […] Goat Anti-Rabbit IgG H&L (HRP) (ab6721) purchased from Abcam (Abcam, Cambridge, UK). […] Cell culture conditions: […] When the cells were fused to 90%, the old medium was discarded, and the cells were washed twice with 2 ml PBS. […] When the cells became round, 2 ml complete medium was quickly added to terminate digestion, and the cells were gently blown and collected, and centrifuged at 800 rpm, 4° C. for 5 min. The supernatant was discarded, the cells were resuspended with complete medium, cultured in bottles, and the medium was changed every other day. […] LSZ102 (15 mg/kg) group: […] LSZ-102 is a selective estrogen receptor degrader developed by Novartis in the clinical research stage and is one of the earliest oral SERDs to enter clinical research; […] The tumor inhibition efficacy of the compound was evaluated by tumor growth inhibition rate TGI (%).

[4] = test system: MCF-7 cells; test: Inhibition of MCF-7 cell proliferation (CTG/ATP method); format: cell-based; settings: for IC50: Homo sapiens, MCF7, 144 h, read-out: IC50 (nM), inhibitory activity on MCF-7 cell proliferation; for anti-tumor activity, times higher than SAR439859 / anti-tumor activity, times higher than fulvestrant: MCF-7 proliferation; for anti-tumor activity, times higher than SAR439859: vs SAR439859; for anti-tumor activity, times higher than fulvestrant: vs fulvestrant
Experimental: The purpose of this experiment is to determine the in vitro proliferation inhibitory effect of the compounds of the present invention on the commonly used breast cancer estrogen receptor-positive cells, MCF-7 cells, and to evaluate the in vitro activity of the compounds based on IC50. The inhibitory effect of the compounds of the present invention on the proliferation of MCF-7 cells was tested by the ATP method, specifically the CTG method. CellTiter-Glo, referred to as CTG, is a rapid homogenous detection method for determining the number of viable cells in culture by quantifying ATP. ATP is a key indicator of the metabolism of living cells. The homogenous detection makes the cell lysis and the generated luminescent signal proportional to the amount of ATP present, and the amount of ATP is directly proportional to the number of cells in the culture. The specific experimental method is as follows. […] The cells were cultured in a 37° C. incubator under 5% CO2. Cell passaging, recovery and cryopreservation were performed according to conventional methods. […] On the second day, the drug with concentration gradient was added, 10 μL per well. […] The 96-well plate was incubated in 5% CO2 at 37° C. for 6 days. 50 μL of CTG reagent was added to each well of the 96-well plate, and the plate was shaken on a shaker for 5 min, and then left at room temperature and protected from light for 10 min. 60 μL of CTG reagent was transferred to the 384-well Opti-plate. The luminescence signals were read by a multifunctional enzyme marker, and the signal intensity was used to characterize the number of viable cells. The data of each dosing group were normalized to 100% of the mean value of the control group, and the data were processed and analyzed by GraphPad Prism software.

[5] = Pharmacokinetics in rats, oral; format: in vivo, SD rats; settings: rat, 10 mg/kg
Experimental: The purpose of this experiment is to test the pharmacokinetic properties of the compounds of the present invention in rats.
The solvent is 5% DMSO+5% Solutol+90% (0.5% MC), which is a colorless and clear dosing solution. The dosing method and dosage are: oral, 10 mg/kg. SD rats were randomly divided into groups according to body weight, fasted but not watered for 12-14 hours one day before dosing, and fed 4 hours after dosing. 0.1 mL of blood was collected from each animal through the eye socket each time, anticoagulated with EDTAK2, and the collection time points were: 0, 5, 15, 30 minutes, 1, 2, 4, 6, 8, 24 hours after administration of the test compound. After blood sample collection, it was placed on ice and centrifuged within 30 minutes to separate plasma (centrifugation conditions: 5000 rpm, 10 minutes, 4° C.). It was stored at −80° C. before analysis. The concentration of compounds in rat plasma was determined by LC-MS/MS. The data acquisition and control system software was Analyst 1.5.1 software (Applied Biosystem). The peak integration method of the chromatogram sample was automatic integration; the ratio of the sample peak area to the internal standard peak area was used as an indicator and regressed with the concentration of the sample. Regression method: linear regression, weight coefficient is 1/X^2. Pharmacokinetic parameters were analyzed and processed by WinNonlin Professional v6.3 (Pharsight, USA) using non-compartmental model. Cmax is the maximum measured blood drug concentration, the area under the blood drug concentration-time curve AUC (0→t) was calculated by the trapezoidal method, and Tmax is the time when the blood drug concentration reaches the peak after administration. Experimental data are expressed as “mean±standard deviation” (Mean±SD, n≥3) or “mean” (Mean, n=2).

[6] = in vivo; settings: female, Sprague-Dawley (SD), rat, po, 10 mg/kg

Sequence of ERα of uterine tissue (P06211 whole entry): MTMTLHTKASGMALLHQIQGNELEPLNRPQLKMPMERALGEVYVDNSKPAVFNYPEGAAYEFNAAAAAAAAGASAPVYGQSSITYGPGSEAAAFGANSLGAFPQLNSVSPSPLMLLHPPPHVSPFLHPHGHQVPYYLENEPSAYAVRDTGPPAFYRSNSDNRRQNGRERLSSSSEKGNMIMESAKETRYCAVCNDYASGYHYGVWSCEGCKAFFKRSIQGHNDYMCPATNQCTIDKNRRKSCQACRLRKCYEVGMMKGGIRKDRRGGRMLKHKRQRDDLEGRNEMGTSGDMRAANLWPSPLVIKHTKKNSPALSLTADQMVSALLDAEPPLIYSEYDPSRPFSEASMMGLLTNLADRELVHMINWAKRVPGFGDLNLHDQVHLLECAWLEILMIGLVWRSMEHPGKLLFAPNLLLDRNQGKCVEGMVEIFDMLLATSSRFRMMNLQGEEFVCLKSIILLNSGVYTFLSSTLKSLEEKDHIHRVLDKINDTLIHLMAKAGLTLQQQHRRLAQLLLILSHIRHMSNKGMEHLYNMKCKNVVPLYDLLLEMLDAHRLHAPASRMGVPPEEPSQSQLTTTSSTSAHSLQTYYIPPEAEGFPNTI

Compound: 4-hydroxytamoxifen
- Mean body weight [1]: 43.9 g

Compound: COc1cc(F)ccc1[C@@H]1CSc2cc(O)ccc2[C@@H]1c1ccc(OCCN2CC(CF)C2)cc1 (relative stereo) [Example 4, Cis-3-(4-fluoro-2-methoxyphenyl)-4-(4-(2-(3-(fluoromethyl)azetidin-1-yl)ethoxy)phenyl)-7-hydroxythiochroman]
- IC50 [2]: 6.84 ± 1.4 nM
- mean tumour volume (mm^3), 0 day [3]: 202 mm^3
- mean tumour volume (mm^3), 21 days [3]: 332 mm^3
- TGI(%) [3]: 78%

Compound: COc1cc(F)ccc1C1CSc2cc(B(O)O)ccc2C1c1ccc(OCCN2CC(CF)C2)cc1 (stereo not drawn) [Example 10, Cis-(3-(4-fluoro-2-methoxyphenyl)-4-(4-(2-(3-(fluoromethyl)azetidin-1-yl)ethoxy)phenyl)thiochroman-7-boronic Acid]
- IC50 ([4]; MCF-7, CTG, 6 days): 1.7 nM

Compound: COc1cc(F)ccc1[C@H]1CSc2cc(O)ccc2[C@H]1c1ccc(OCCN2CC(CF)C2)cc1 [Example 18, (3S,4R)-3-(4-fluoro-2-methoxyphenyl)-4-(4-(2-(3-(fluoromethyl)azetidin-1-yl)ethoxy)phenyl-)7-hydroxythiochroman]
- Tmax ([5]; Sprague-Dawley (SD), plasma): 3 h
- half-life ([5]; Sprague-Dawley (SD), plasma): 8.92 h
- MRTPO [5]: 13.4 h
- AUC0-t ([5]; plasma): 1365 ng·h/mL
- Cmax ([5]; plasma): 198 ng/mL
- concentration at 4 h ([6]; brain): 17400 ng/g
- Kp at 4 h ([6]; brain/plasma): 14.1
- concentration at 4 h ([6]; plasma): 1230 ng/mL
- anti-tumor activity, times higher than SAR439859 [4]: 15.6 times
- anti-tumor activity, times higher than fulvestrant [4]: 7.6 times
- IC50 [2]: 5.37 ± 0.42 nM

Compound: Oc1ccc2c(c1)SC[C@H](c1cc(F)c(F)cc1F)[C@@H]2c1ccc(OCCN2CC(CF)C2)cc1 [Example 19, (3S,4R)-4-(4-(2-(3-(fluoromethyl)azetidin-1-yl)ethoxy)phenyl)-3-(2,4,5-trifluorophenyl)-7-hydroxythiochroman]
- anti-tumor activity, times higher than SAR439859 [4]: 15.6 times
- anti-tumor activity, times higher than fulvestrant [4]: 7.6 times

Compound: C[C@]12CC[C@@H]3c4ccc(O)cc4C[C@@H](CCCCCCCCC[S+]([O-])CCCC(F)(F)C(F)(F)F)[C@H]3[C@@H]1CC[C@@H]2O (stereo partly drawn) [Fulvestrant, reference compound]
- IC50 [4]: 1.9 nM

Compound: CC(F)(F)c1cc(F)ccc1-c1sc2cc(O)ccc2c1Oc1ccc(/C=C/C(=O)O)cc1 [LSZ102, reference compound]
- mean tumour volume (mm^3), 0 day [3]: 200 mm^3
- mean tumour volume (mm^3), 21 days [3]: 345 mm^3
- TGI(%) [3]: 75%

Compound: O=C(O)c1ccc2c(c1)CCCC(c1ccc(Cl)cc1Cl)=C2c1ccc(O[C@H]2CCN(CCCF)C2)cc1 [SAR439859, reference compound]
- IC50 [4]: 3.9 nM
